Patent publication US4587218A, “Novel bioconverting microorganisms” (priority 1983, dated 1986)

How the values were obtained:
[1] = tested on: wild-type strain (ATCC 23342); test: Buffer toxicity at pH 7.0, wild-type strain; settings: buffers 0.05M adjusted to pH 7.0, growth checked
[2] = tested on: mutants (ATCC 31683, CSV 558 and CUC 014); test: Buffer toxicity at pH 7.0, mutant strains; settings: all the mutants; buffers 0.05M adjusted to pH 7.0, growth checked
[3] = tested on: Cultures ATCC 23342, ATCC 31683, CSV 558 and CUC 014; test: Sensitivity to nine antibiotics, all four cultures; assay type: cell-based, Actinoplanes missouriensis; settings: identical pattern
Experimental: Temperature range, NaCl and sucrose tolerances, pH range, and antibiotic sensitivity were determined using ISP No. 2 (yeast-malt extract agar) plates. Plates were incubated at 30° C. for 14 days. The temperatures tested were 5°, 10°, 15°, 20°, 25°, 30°, 37°, 40°, 45°, 50° and 55° C.
Antibiotic sensitivity was determined using sensitivity discs padded on the surface of seeded agar plates. The following antibiotics were used: cephalothin (sodium) 30 μg, erythromycin (estolate) 15 μg, chloromycetin 30 μg, novobiocin 30 μg, penicillin (G) 10 units, rifampin 5 μg, streptomycin 10 μg, tetracycline 30 μg and vancomycin 30 μg.

## O=C(O)CC(O)(CC(=O)O)C(=O)O [citric acid]
[1]
  sensitivity to citric acid: not sensitive
[2]
  sensitivity to citric acid: sensitive

## CO[C@@H]1[C@@H](OC(N)=O)[C@@H](O)[C@H](Oc2ccc3c(O)c(NC(=O)c4ccc(O)c(CC=C(C)C)c4)c(=O)oc3c2C)OC1(C)C [Novobiocin]
[3]
  sensitivity to nine antibiotics: Resistance

## CC1(C)S[C@@H]2[C@H](NC(=O)Cc3ccccc3)C(=O)N2[C@H]1C(=O)O [Penicillin G]
[3]
  sensitivity to nine antibiotics: Resistance
